Among the test systems are NCI-H23 lung; BT-549 breast; HCT-15 colon; MCF7 breast; OVCAR-3 ovarian; SW-620 colon; LOX IMVI melanoma.
Common to all, as to test: DTP human tumour cell line panel, 48 h

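Test compounds were applied to cells in 96-well plates for 48 hours at 5 doses. At the GI50, growth is halved. At the TGI there is no net growth.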

For the molecule `O=Cc1ccc(-c2ccc(-c3nc4ccccc4o3)cc2)o1`, the GI50 in the experiment on NCI-H23 lung was 31.8 µM; in the experiment on BT-549 breast, 35.4 µM; in the experiment with HCT-15 colon, 19.7 µM; in the experiment with MCF7 breast it was 14.8 µM; in the experiment on OVCAR-3 ovarian, 24.1 µM; in the experiment on SW-620 colon it was 33 µM. Further, in the experiment with LOX IMVI melanoma, the GI50 is 23 µM. Moreover, the TGI in the experiment with NCI-H23 lung is greater than 100 µM; with BT-549 breast it was greater than 100 µM; with HCT-15 colon, 53.4 µM; in the experiment with MCF7 breast, greater than 100 µM; in the experiment with OVCAR-3 ovarian it was 61.9 µM; in the experiment with SW-620 colon it was greater than 100 µM. In the experiment on LOX IMVI melanoma, this molecule returned a concentration for total growth inhibition (TGI) of 60.2 µM.

As to `CC1(CCC(=O)OC2CCCCC2)OCCO1`, the TGI in the experiment on NCI-H23 lung, with HCT-15 colon, in the experiment with MCF7 breast, with OVCAR-3 ovarian, with SW-620 colon and in the experiment with LOX IMVI melanoma was greater than 100 µM each time.

Take `CCN(CC)CCCNC(=O)c1c2c(n3ccccc13)C(=O)c1ncccc1C2=O`: the GI50 in the experiment with NCI-H23 lung is 0.252 µM; in the experiment on BT-549 breast, 1.94 µM; with HCT-15 colon it was 0.935 µM; in the experiment with MCF7 breast, 0.298 µM; in the experiment on OVCAR-3 ovarian, 0.134 µM; in the experiment with SW-620 colon, 0.367 µM. Further, the GI50 in the experiment on LOX IMVI melanoma was 0.391 µM. For the same molecule, the total growth inhibition concentration (TGI) in the experiment with NCI-H23 lung stood at 1.99 µM; in the experiment on BT-549 breast it was 4.06 µM; in the experiment on HCT-15 colon it was 2.54 µM; with MCF7 breast it was 1.76 µM; in the experiment with OVCAR-3 ovarian, 0.938 µM; in the experiment with SW-620 colon, 1.67 µM. This molecule also yielded a TGI with LOX IMVI melanoma of 1.8 µM.

Regarding `O=C(OCc1ncc(-c2ccc(C(F)(F)F)cc2)c(NC2CCCCCC2)n1)c1c(F)c(F)c(F)c(F)c1F`, the GI50 in the experiment with NCI-H23 lung is 10.6 µM; with BT-549 breast, 9 µM; in the experiment on HCT-15 colon it was 1.94 µM; with MCF7 breast it was 2.06 µM; with OVCAR-3 ovarian it was 4.09 µM; in the experiment with SW-620 colon, 7.21 µM. Besides, the total growth inhibition concentration (TGI) in the experiment with NCI-H23 lung came out at 28 µM; with BT-549 breast it was 27.1 µM; with HCT-15 colon, 4.78 µM; in the experiment with MCF7 breast, 5.81 µM; in the experiment with OVCAR-3 ovarian it was 13.8 µM; with SW-620 colon, 26.6 µM.

Consider `O=Cc1cccc2c1Oc1c(cccc1C(=O)O)S2`, for which the concentration for total growth inhibition (TGI) in the experiment with NCI-H23 lung, with BT-549 breast, with HCT-15 colon, in the experiment on MCF7 breast, with OVCAR-3 ovarian and with SW-620 colon was greater than 100 µM each time. In the experiment on LOX IMVI melanoma, this molecule gave a total growth inhibition concentration (TGI) greater than 100 µM.

For `C=C(Nc1ccc([N+](=O)[O-])cc1[N+](=O)[O-])c1c/c(=N\NC(N)=S)c2ccccc2o1`, the concentration for total growth inhibition (TGI) was greater than 100 µM in the experiment on NCI-H23 lung; greater than 100 µM with BT-549 breast; greater than 100 µM in the experiment on HCT-15 colon; greater than 100 µM in the experiment on MCF7 breast; 86.1 µM in the experiment with OVCAR-3 ovarian; greater than 100 µM with SW-620 colon. In the experiment with LOX IMVI melanoma, the total growth inhibition concentration (TGI) was greater than 100 µM.

Consider `CCC(CNc1cc(OC)cc2cccnc12)NC1CCCCC1` (stereo not drawn), for which the GI50 in the experiment on NCI-H23 lung is 51.3 µM; in the experiment with HCT-15 colon, 34.9 µM; in the experiment on MCF7 breast it was 20.7 µM; with OVCAR-3 ovarian it was 17.3 µM; in the experiment with SW-620 colon, 19.4 µM; in the experiment with LOX IMVI melanoma, 28.6 µM. For the same molecule, the TGI with NCI-H23 lung is greater than 100 µM; in the experiment on HCT-15 colon, greater than 100 µM; in the experiment on MCF7 breast it was greater than 100 µM; with OVCAR-3 ovarian, 65.5 µM; with SW-620 colon it was 56.7 µM; with LOX IMVI melanoma, greater than 100 µM.

For `NC(=O)c1cccc(Nc2nccc(Nc3cccc4[nH]ncc34)n2)c1`, the GI50 was 17.1 µM in the experiment on NCI-H23 lung; 9.4 µM with BT-549 breast; greater than 25 µM in the experiment with HCT-15 colon; 9.49 µM in the experiment with MCF7 breast; 8.31 µM in the experiment on OVCAR-3 ovarian; 9.09 µM with SW-620 colon. For the same molecule, the GI50 in the experiment with LOX IMVI melanoma was 6.07 µM. Also, the TGI is greater than 25 µM in the experiment with NCI-H23 lung; greater than 25 µM in the experiment with BT-549 breast; greater than 25 µM in the experiment on HCT-15 colon; greater than 25 µM in the experiment with MCF7 breast; 24.6 µM in the experiment on OVCAR-3 ovarian; greater than 25 µM in the experiment on SW-620 colon. In the experiment on LOX IMVI melanoma, this molecule had a TGI greater than 18.4 µM.

In the case of `COc1ccc(OC)c2c1[nH]c(=O)c1c3ncccc3cn21`, the GI50 in the experiment on NCI-H23 lung was 3.58 µM; in the experiment with BT-549 breast, greater than 100 µM; in the experiment with HCT-15 colon it was 3.27 µM; with MCF7 breast it was 2.17 µM; with OVCAR-3 ovarian, 4.54 µM; with SW-620 colon, 1.55 µM. Further, the GI50 with LOX IMVI melanoma is 1.8 µM. In addition, the total growth inhibition concentration (TGI) is greater than 100 µM in the experiment with NCI-H23 lung; greater than 100 µM in the experiment on BT-549 breast; greater than 100 µM in the experiment on HCT-15 colon; 27.3 µM with MCF7 breast; 18.4 µM in the experiment with OVCAR-3 ovarian; 5.38 µM with SW-620 colon. This molecule also returned a concentration for total growth inhibition (TGI) in the experiment with LOX IMVI melanoma of 4.29 µM.

On to `COc1ccccc1CNCCCN1C(=O)c2ccc3c4c(ccc(c24)C1=O)C(=O)N(CCCCNCCCN)C3=O`, for which the GI50 in the experiment on NCI-H23 lung is 0.594 µM; with BT-549 breast it was 2.23 µM; in the experiment with HCT-15 colon, 4.43 µM; in the experiment on MCF7 breast, 0.472 µM; with OVCAR-3 ovarian, 0.334 µM; in the experiment on SW-620 colon, 0.636 µM. In addition, the GI50 with LOX IMVI melanoma was 0.654 µM. The total growth inhibition concentration (TGI) in the experiment on NCI-H23 lung turned out to be 1.63 µM; in the experiment on BT-549 breast, 4.51 µM; in the experiment on HCT-15 colon, 18.6 µM; in the experiment with MCF7 breast, 1.35 µM; in the experiment with OVCAR-3 ovarian, 1.14 µM; with SW-620 colon it was 2 µM. For the same molecule, the TGI in the experiment with LOX IMVI melanoma came out at 1.69 µM.

With `Cc1cc(C)c(Cn2cnc3c(Cl)ncnc32)c(C)c1CCl`, the GI50 in the experiment with NCI-H23 lung is 90.7 µM; in the experiment on BT-549 breast, greater than 100 µM; in the experiment with HCT-15 colon, 0.343 µM; in the experiment with MCF7 breast, 30.5 µM; in the experiment on OVCAR-3 ovarian, 18.1 µM; in the experiment on SW-620 colon, 92.7 µM. Moreover, the GI50 in the experiment on LOX IMVI melanoma is 0.652 µM. For the same molecule, the concentration for total growth inhibition (TGI) in the experiment with NCI-H23 lung was greater than 100 µM; with BT-549 breast it was greater than 100 µM; in the experiment with HCT-15 colon, 18.8 µM; in the experiment with MCF7 breast, greater than 100 µM; in the experiment with OVCAR-3 ovarian it was 53.9 µM; in the experiment on SW-620 colon, greater than 100 µM. The TGI with LOX IMVI melanoma came out at 8.69 µM.

Values taken from PubChem BioAssay (NCI).
